pKi: −log10 of the molar value.
Target: hMC2 receptor (Homo sapiens, UniProt Q01718)
Assay: hMC2 membrane binding assay ([125I]ACTH (1-39) Tyr23, SPA)
Parameters: scale not given here
Conditions: crude hMC2R membranes from CRE-bla-CHO-K1 cells expressing hMC2 receptor and hMRAP; [125I]ACTH (1-39) Tyr23 0.2 nM; 1.5 hours at room temperature; read-out: MC2R binding potency
Outline: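 Ki comes from non-linear regression of SPA scintillation counts. Displacement of 0.2 nM [125I]ACTH(1-39) Tyr23 by compound dose series (usually 0–10,000 nM final) ran 1.5 h at room temperature. Membranes came from CHO-K1 CRE-bla cells stably expressing hMC2R plus hMRAP, bead-coupled in pH 7.4 buffer with 0.2% BSA.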

hMC2 receptor, sequence (Q01718 whole entry): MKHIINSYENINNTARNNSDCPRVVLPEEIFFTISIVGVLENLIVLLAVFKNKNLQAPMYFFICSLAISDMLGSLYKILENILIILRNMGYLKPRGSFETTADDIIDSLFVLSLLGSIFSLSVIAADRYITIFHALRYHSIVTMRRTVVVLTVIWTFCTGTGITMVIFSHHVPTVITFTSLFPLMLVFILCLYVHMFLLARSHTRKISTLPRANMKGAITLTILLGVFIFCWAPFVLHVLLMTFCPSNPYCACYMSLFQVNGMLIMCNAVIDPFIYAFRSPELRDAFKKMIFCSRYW
hMC2 receptor, sequence (Q8TCY5 whole entry partner): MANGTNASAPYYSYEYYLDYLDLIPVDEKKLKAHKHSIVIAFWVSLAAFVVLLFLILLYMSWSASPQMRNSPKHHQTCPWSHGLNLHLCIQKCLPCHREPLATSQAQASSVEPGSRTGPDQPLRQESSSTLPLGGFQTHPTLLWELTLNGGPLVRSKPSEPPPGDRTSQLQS

| SMILES | pKi |
| --- | --- |
| CCOc1ncccc1-c1ccc(N2CCN(C(=O)C3(C(F)F)CCCC3)C[C@H]2CC)c(C(=O)N[C@@H]2CCN(C)C2)n1 [Compound 1-416, 5-[(2R)-4-[1-(difluoromethyl)cyclopentanecarbonyl]-2-ethylpiperazin-1-yl]-2′-ethoxy-N-[(3R)-1-methylpyrrolidin-3-yl]-[2,3′-bipyridine]-6-carboxamide] | > 8.00 |
| CCOc1ccccc1-c1ccc(N2CCN(C(=O)C3(C(F)F)CCCC3)C[C@H]2CC)c(C(=O)N[C@@H]2CCN(C)C2)n1 [Compound 1-417, 3-[(2R)-4-[1-(difluoromethyl)cyclopentanecarbonyl]-2-ethylpiperazin-1-yl]-6-(2-ethoxyphenyl)-N-[(3R)-1-methylpyrrolidin-3-yl]pyridine-2-carboxamide] | > 8.00 |
| CCOc1ncccc1-c1ccc(N2CCN(C(=O)N3CCc4cccc(C(F)(F)F)c43)C[C@H]2CC)c(C(=O)NC2CN(C)C2)n1 [Compound 1-418, 2′-ethoxy-5-[(2R)-2-ethyl-4-[7-(trifluoromethyl)-2,3-dihydro-1H-indole-1-carbonyl]piperazin-1-yl]-N-(1-methylazetidin-3-yl)-[2,3′-bipyridine]-6-carboxamide] | > 8.00 |
| CCOc1ncccc1-c1ccc(N2CCN(C(=O)N3CCc4cc(F)cc(Cl)c43)C[C@H]2CC)c(C(=O)N[C@H]2CCN(C)C2)n1 [Compound 1-419, 5-[(2R)-4-(7-chloro-5-fluoro-2,3-dihydro-1H-indole-1-carbonyl)-2-ethylpiperazin-1-yl]-2′-ethoxy-N-[(3S)-1-methylpyrrolidin-3-yl]-[2,3′-bipyridine]-6-carboxamide] | > 8.00 |
| CCOc1ncccc1-c1ccc(N2CCN(C(=O)N3CCc4cc(F)cc(Cl)c43)C[C@H]2CC)c(C(=O)NC2CN(C)C2)n1 [Compound 1-420, 5-[(2R)-4-(7-chloro-5-fluoro-2,3-dihydro-1H-indole-1-carbonyl)-2-ethylpiperazin-1-yl]-2′-ethoxy-N-(1-methylazetidin-3-yl)-[2,3′-bipyridine]-6-carboxamide] | > 8.00 |
| CCOc1ccccc1-c1ccc(N2CCN(C(=O)N3CCc4cc(F)cc(Cl)c43)C[C@H]2CC)c(C(=O)N[C@H]2CCN(C)C2)n1 [Compound 1-421, 3-[(2R)-4-(7-chloro-5-fluoro-2,3-dihydro-1H-indole-1-carbonyl)-2-ethylpiperazin-1-yl]-6-(2-ethoxyphenyl)-N-[(3S)-1-methylpyrrolidin-3-yl]pyridine-2-carboxamide] | > 8.00 |
| CCOc1ncccc1-c1ccc(N2CCN(C(=O)N3CCc4cc(F)cc(C#N)c43)C[C@H]2CC)c(C(=O)NC2CN(C)C2)n1 [Compound 1-422, 5-[(2R)-4-(7-cyano-5-fluoro-2,3-dihydro-1H-indole-1-carbonyl)-2-ethylpiperazin-1-yl]-2′-ethoxy-N-(1-methylazetidin-3-yl)-[2,3′-bipyridine]-6-carboxamide] | > 8.00 |
| CCOc1ncccc1-c1ccc(N2CCN(C(=O)N3CCc4cc(F)cc(C#N)c43)C[C@H]2CC)c(C(=O)N[C@H]2CCN(C)C2)n1 [Compound 1-423, 5-[(2R)-4-(7-cyano-5-fluoro-2,3-dihydro-1H-indole-1-carbonyl)-2-ethylpiperazin-1-yl]-2′-ethoxy-N-[(3S)-1-methylpyrrolidin-3-yl]-[2,3′-bipyridine]-6-carboxamide] | > 8.00 |
| CCOc1ccccc1-c1ccc(N2CCN(C(=O)N3CCc4cc(F)cc(C#N)c43)C[C@H]2CC)c(C(=O)NC2CN(C)C2)n1 [Compound 1-424, 3-[(2R)-4-(7-cyano-5-fluoro-2,3-dihydro-1H-indole-1-carbonyl)-2-ethylpiperazin-1-yl]-6-(2-ethoxyphenyl)-N-(1-methylazetidin-3-yl)pyridine-2-carboxamide] | > 8.00 |
| CCOc1ncccc1-c1ccc(N2CCN(C(=O)n3ccc4cc(F)cc(Cl)c43)C[C@H]2CC)c(C(=O)N[C@@H]2CCN(C)C2)n1 [Compound 1-425, 5-[(2R)-4-(7-chloro-5-fluoro-1H-indole-1-carbonyl)-2-ethylpiperazin-1-yl]-2′-ethoxy-N-[(3R)-1-methylpyrrolidin-3-yl]-[2,3′-bipyridine]-6-carboxamide] | > 8.00 |
| CCOc1ccccc1-c1ccc(N2CCN(C(=O)N3CCc4cc(F)cc(C#N)c43)C[C@H]2CC)c(C(=O)N[C@H]2CCN(C)C2)n1 [Compound 1-426, 3-[(2R)-4-(7-cyano-5-fluoro-2,3-dihydro-1H-indole-1-carbonyl)-2-ethylpiperazin-1-yl]-6-(2-ethoxyphenyl)-N-[(3S)-1-methylpyrrolidin-3-yl]pyridine-2-carboxamide] | > 8.00 |
| CCOc1ncccc1-c1ccc(N2CCN(C(=O)N3CCCC[C@H]3C(F)(F)F)C[C@H]2CC)c(C(=O)N[C@@H]2CCN(C)C2)n1 [Compound 1-427, 2′-ethoxy-5-[(2R)-2-ethyl-4-[(2S)-2-(trifluoromethyl)piperidine-1-carbonyl]piperazin-1-yl]-N-[(3R)-1-methylpyrrolidin-3-yl]-[2,3′-bipyridine]-6-carboxamide] | > 8.00 |
| CCOc1ncccc1-c1ccc(N2CCN(C(=O)n3ccc4cccc(Cl)c43)C[C@H]2CC)c(C(=O)N[C@@H]2CCN(C)C2)n1 [Compound 1-428, 5-[(2R)-4-(7-chloro-1H-indole-1-carbonyl)-2-ethylpiperazin-1-yl]-2′-ethoxy-N-[(3R)-1-methylpyrrolidin-3-yl]-[2,3′-bipyridine]-6-carboxamide] | > 8.00 |
| CCOc1ncccc1-c1ccc(N2CCN(C(=O)n3ccc4cccc(C#N)c43)C[C@H]2CC)c(C(=O)N[C@@H]2CCN(C)C2)n1 [Compound 1-429, 5-[(2R)-4-(7-cyano-1H-indole-1-carbonyl)-2-ethylpiperazin-1-yl]-2′-ethoxy-N-[(3R)-1-methylpyrrolidin-3-yl]-[2,3′-bipyridine]-6-carboxamide] | > 8.00 |
| CCOc1ccccc1-c1ccc(N2CCN(C(=O)n3ccc4cc(F)cc(Cl)c43)C[C@H]2CC)c(C(=O)N[C@@H]2CCN(C)C2)n1 [Compound 1-430, 3-[(2R)-4-(7-chloro-5-fluoro-1H-indole-1-carbonyl)-2-ethylpiperazin-1-yl]-6-(2-ethoxyphenyl)-N-[(3R)-1-methylpyrrolidin-3-yl]pyridine-2-carboxamide] | > 8.00 |
| CCOc1ccccc1-c1ccc(N2CCN(C(=O)n3ccc4cccc(Cl)c43)C[C@H]2CC)c(C(=O)N[C@@H]2CCN(C)C2)n1 [Compound 1-431, 3-[(2R)-4-(7-chloro-1H-indole-1-carbonyl)-2-ethylpiperazin-1-yl]-6-(2-ethoxyphenyl)-N-[(3R)-1-methylpyrrolidin-3-yl]pyridine-2-carboxamide] | > 8.00 |
| CCOc1ccccc1-c1ccc(N2CCN(C(=O)n3ccc4cccc(C#N)c43)C[C@H]2CC)c(C(=O)N[C@@H]2CCN(C)C2)n1 [Compound 1-432, 3-[(2R)-4-(7-cyano-1H-indole-1-carbonyl)-2-ethylpiperazin-1-yl]-6-(2-ethoxyphenyl)-N-[(3R)-1-methylpyrrolidin-3-yl]pyridine-2-carboxamide] | > 8.00 |
| CCOc1ccccc1-c1ccc(N2CCN(C(=O)N3CCCC[C@H]3C(F)(F)F)C[C@H]2CC)c(C(=O)N[C@@H]2CCN(C)C2)n1 [Compound 1-433, 6-(2-ethoxyphenyl)-3-[(2R)-2-ethyl-4-[(2S)-2-(trifluoromethyl)piperidine-1-carbonyl]piperazin-1-yl]-N-[(3R)-1-methylpyrrolidin-3-yl]pyridine-2-carboxamide] | > 8.00 |

Reference: patent US10981894B2, “Melanocortin subtype-2 receptor (MC2R) antagonists and uses thereof” (Crinetics Pharmaceuticals, Inc., priority 2018, dated 2021)
